Experimental data reported in the SangsterLogP compilation.

SMILES	logP
CC(C)c1cccc(C2C(=O)c3ccccc3C2=O)c1	4.43
CCCCCCCCCCCC(=O)O	4.92
COc1cccc(C2C(=O)c3ccccc3C2=O)c1	2.88
Cc1cc(C)c(C)c(C(=O)O)c1C	4.19
CCCCCCCCC(=O)O	3.42
CCCCCCCCCCC(=O)O	4.42
O=C(O)Cc1ccc(C2CCCC2)cc1	3.44
COc1ccc(C2C(=O)c3ccccc3C2=O)cc1	2.88
CCCCCCC(=O)O	2.42
O=C(O)Cc1ccc(I)cc1	2.53
CCC(C)(C)c1ccc(CC(=O)O)cc1	3.48
CCc1ccc(C2C(=O)c3ccccc3C2=O)cc1	3.92
O=C1c2ccccc2C(=O)C1c1cccc(C(F)(F)F)c1	3.78
CCCCCc1ccc(CC(=O)O)cc1	3.75
O=C(O)CCCCCC(=O)O	0.61
Cc1ccc(C(=O)O)c(C)c1	3.01
CC(C)c1cc(C(C)C)cc(C2C(=O)c3ccccc3C2=O)c1	5.96
CC(C)c1ccc(C2C(=O)c3ccccc3C2=O)cc1	4.43
Cc1ccc(C2C(=O)c3ccccc3C2=O)cc1	3.46
O=C(O)Cc1ccc([N+](=O)[O-])cc1	1.54
O=C1c2ccccc2C(=O)C1c1cccc(Cl)c1	3.61
CCCCc1ccc(CC(=O)O)cc1	3.25
CC(C)(C)c1cc(C2C(=O)c3ccccc3C2=O)cc(C(C)(C)C)c1	6.86

SMILES	logP
Cc1cc(C)c(C(=O)O)c(C)c1	3.69
O=C1c2ccccc2C(=O)C1c1ccc(-c2ccccc2)cc1	4.79
O=C1c2ccccc2C(=O)C1c1cc(Cl)cc(Cl)c1	4.32
CCc1cccc(C2C(=O)c3ccccc3C2=O)c1	3.92
COc1cc(OC)cc(C2C(=O)c3ccccc3C2=O)c1	2.86
CCCCCCCCc1ccc(C2C(=O)c3ccccc3C2=O)cc1	6.93
O=C(O)Cc1ccc(C2CCCCC2)cc1	3.81
O=[N+]([O-])c1cc(Br)c(O)c(Br)c1	3.07
CCCOc1ccc(CC(=O)O)cc1	2.31
CC(C)(C)c1cccc(C2C(=O)c3ccccc3C2=O)c1	4.88
O=[N+]([O-])c1cc(Cl)c(O)c(Cl)c1	2.96
O=C1c2ccccc2C(=O)C1c1ccc(Cl)cc1	3.61
CCc1cc(CC)cc(C2C(=O)c3ccccc3C2=O)c1	4.94
Cc1cc(C)cc(C2C(=O)c3ccccc3C2=O)c1	4.02
CC(C)(C)c1ccc(C2C(=O)c3ccccc3C2=O)cc1	4.88
CCCCCCc1ccc(CC(=O)O)cc1	4.25
O=C1c2ccccc2C(=O)C1c1ccc(C(F)(F)F)cc1	3.78
Cc1cccc(C2C(=O)c3ccccc3C2=O)c1	3.46
O=C(O)c1cc([N+](=O)[O-])ccc1O	1.98
O=C(O)Cc1ccccc1	1.41
O=C1c2ccccc2C(=O)C1c1ccc(Br)cc1	3.76
CCCc1ccc(CC(=O)O)cc1	2.75
